Data set [1] relates to SW620 cells (human metastatic colon cancer). As to the kind of experiment: MTT cytotoxicity assay, SW620. It is filed as cell-based. Conditions: SW-620, 72 h incubation, mean ± SD. As to the method: (§1) The cell viability was analyzed at the following six concentrations of compounds: 5, 10, 20, 40, 60 and 100 µM after 72 h incubation.
(§2) Additionally, to determine the safety profile of the tested compounds, the therapeutic index (TI) (the ratio of IC50 value in HaCaT to cancer cells K562) was calculated. […] The goal of conducting the MTT assay in this research was to select benzofuran derivatives, which manage to reduce viability of cancer cells while exposing mild effects on normal healthy cells.
(§3) The cytotoxicity was evaluated by MTT reduction assay, which measures mitochondrial respiratory function. The test was performed based on the method described by Präbst et al.. Cells (1 × 10^4/well), in logarithmic phase, were seeded into 96-well plates in appropriate medium. After 24 h, cells were exposed to test compounds. […] After 72 h, the medium with the compounds was completely removed and MTT solution (0.5 mg/mL) in fresh medium without serum was added to each well. Plates with cells were incubated for 4 h at 37 °C in the dark. Then, MTT solution was removed and replenished with 0.1 mL DMSO: isopropanol (1:1) mixture to dissolve the generated formazan crystals. The optical density was measured with a […] GO (ThermoScientific) microplate reader at 570 nm. Replicates of three wells for each dosage, including vehicle control, were analyzed for each experiment. The experiments were conducted in triplicate. Control cells which were only treated with respective medium were used as the 100% viability value. […] Additionally, to determine the safety profile of the test compounds, therapeutic indexes (TI) (the ratio of IC50 values in HaCat to cancer cells (K562, PC3, SW620, Cack-1)) were calculated.

For data set [2], the system named is Cacki-1 cells (human clear cell renal cell carcinoma). Briefly: MTT cytotoxicity assay, Cacki-1. Type of data set: cell-based. Conditions: 72 h incubation. As to the method: as §1, §2, §3
(In general: Tetrazolium dyes change colour on reduction, which living cells bring about.)

Data set [3] concerns K562 cells (human chronic myelogenous leukemia). Briefly: MTT cytotoxicity assay, K562. It is filed as cell-based. Conditions: 72 h incubation, mean ± SD. On the procedure:
as §1, §2, §3

Data set [4] relates to HaCaT cells (human immortal keratinocytes). As to the kind of experiment: MTT cytotoxicity assay, HaCaT. Type of data set: cell-based. Conditions: 72 h incubation, mean ± SD. As to the method:
as §1, §2, §3

Data set [5] deals with PC3 cells (human metastatic prostate cancer). As to the kind of experiment: MTT cytotoxicity assay, PC3. Type of data set: cell-based. Conditions: PC-3, 72 h incubation, mean ± SD. As to the method: as §1, §2, §3
The next data set has as its system HeLa cancer cells. Details: method as in PMID 20657389, PMID 25482722, PMID 30465514, PMID 31003438. Conditions: lead compound; ref [32],[33],[34],[35]; cited from earlier work.
Another data set relates to HL-60 leukemic cell line. Details: method as in PMID 20657389, PMID 25482722, PMID 30465514, PMID 31003438. Conditions: lead compound; ref [32],[33],[34],[35]; cited from earlier work.
The test system of another data set is K562 leukemic cell line. Details: method as in PMID 20657389, PMID 25482722, PMID 30465514, PMID 31003438. Conditions: lead compound; ref [32],[33],[34],[35]; cited from earlier work.
A further data set has as its system clinical strains. As to the kind of experiment: organism not typed. Conditions: read-out: MIC clinical strains. Type of data set: cell-based. On the procedure: (§4) The antimicrobial activity of compounds was expressed by minimum inhibitory concentration values (MICs), according to CLCI reference procedures with some modifications. MIC was tested by the two-fold serial microdilution method (in 96-well microtiter plates) on MH II liquid medium. The final inoculum of all of the studied bacteria was 10^6 CFU/mL (colony forming unit per mL). The stock solution of tested compounds was prepared in DMSO and was diluted in sterile medium (to a maximum of 1% of solvent content). The concentrations of compounds were from 16 to 512 µg/mL. […] Clinical microorganisms used in this study were obtained from the collection of the Department of Pharmaceutical Microbiology, Medical University of Warsaw, Poland [70, 71].

The test system of a further data set is E. coli ATCC 25922. Briefly: MIC, microdilution. It is filed as cell-based. Conditions: Escherichia coli, ATCC25922; 18 h, 35 °C, MH II medium. On the procedure: (§5) The antimicrobial studies for all of the obtained compounds were conducted using reference strains of bacteria derived from international microbe collections—the American Type Culture Collection (ATCC) and the National Collection of Type Culture (NCTC). Among the reference strains there were two Gram-negative rods (P. aeruginosa ATCC 15442 and E. coli ATCC 25922) and six Gram-positive isolates (Staphylococcus aureus: NCTC 4163, ATCC 25923, ATCC 6538, ATCC 29213, S. epidermidis ATCC 12228, ATCC 35984).
as §4

Another data set concerns S.aureus ATCC 6538. As to the kind of experiment: MIC, microdilution. Type of data set: cell-based. Conditions: Staphylococcus aureus, ATCC6538; 18 h, 35 °C, MH II medium. On the procedure:
as §5, §4
(In general: In broth dilution the organism is exposed to a series of concentrations in liquid medium.)

The test system of the next data set is P. aeruginosa ATCC 15442. As to the kind of experiment: MIC, microdilution. It is filed as cell-based. Conditions: Pseudomonas aeruginosa, ATCC15442; 18 h, 35 °C, MH II medium. As to the method: as §5, §4
Another data set deals with S.aureus NCTC 4163. Briefly: MIC, microdilution. Type of data set: cell-based. Conditions: Staphylococcus aureus, NCTC4163; 18 h, 35 °C, MH II medium. As to the method: as §5, §4
The next data set concerns S.aureus ATCC 25923. Briefly: MIC, microdilution. Type of data set: cell-based. Conditions: Staphylococcus aureus, ATCC25923; 18 h, 35 °C, MH II medium. As to the method: as §5, §4
For data set [6], the system named is S. epidermidis ATCC 35984. As to the kind of experiment: MIC, microdilution. Conditions: Staphylococcus epidermidis, ATCC35984; 18 h, 35 °C, MH II medium. It is filed as cell-based. As to the method:
as §5, §4

Data set [7] concerns S. epiderminis ATCC 122228. As to the kind of experiment: MIC, microdilution. It is filed as cell-based. Conditions: Staphylococcus epidermidis, ATCC122228, 18 h, read-out: MIC S. epiderminis ATCC 122228. As to the method: as §5, §4
The next data set has as its system S.aureus NCTC 29213. As to the kind of experiment: MIC, microdilution. Type of data set: cell-based. Conditions: Staphylococcus aureus, NCTC29213, 18 h, read-out: MIC S.aureus NCTC 29213. On the procedure: as §5, §4

Data on ten molecules can be found in article PMC10888192, “New Derivatives of 1-(3-Methyl-1-Benzofuran-2-yl)Ethan-1-one: Synthesis and Preliminary Studies of Biological Activity” (International Journal of Molecular Sciences, 2024).

SMILES strings stand for the structures. In brackets after ≈: the same amount, converted by molar mass. Where only a bound is given, the exact number is not on record here.

One may read the melting point as the temperature, or range, at which the solid turns liquid. As usually defined, the IC50 is the concentration that inhibits the measured activity by half. For `COc1ccc2oc(C(C)=O)c(CBr)c2c1` [Compound 5, 1-[3-(Bromomethyl)-5-Methoxy-1-Benzofuran-2-yl]Ethanone], the melting point lay within 103 to 106 °C. In [1], this molecule displayed a half-inhibitory concentration (IC50) of 15.6 ± 4.1 µM. Also, the IC50 in [2] was above 100 µM. The same molecule registered a half-maximal inhibitory concentration (IC50) in data set [3] of 10.3 ± 0.55 µM. Moreover, the midpoint of inhibition in data set [4], the IC50, lay at 15 ± 0.8 µM. The same molecule gave a concentration for half-maximal inhibition (IC50) in data set [5] of 17.5 ± 3.5 µM.
The molecule `CCOc1ccc2c(CBr)c(C(C)=O)oc2c1` [Compound 9, 1-[3-(Bromomethyl)-6-Ethoxy-1-Benzofuran-2-yl]Ethanone] gave a melting point of 98 to 105 °C. The half-inhibitory concentration (IC50) in data set [1] is above 100 µM. In data set [2], this molecule registered an IC50 above 100 µM. Besides, inhibition in [3] was half-maximal at 14.4 ± 3.7 µM (IC50). The IC50 in data set [4] came out at 22.8 ± 1.51 µM. Besides, the IC50 in data set [5] came to 40 ± 20 µM.
Take `COc1cc(OC)c2c(C)c(C(C)=O)oc2c1` [Compound 2, 1-(4,6-Dimethoxy-3-Methyl-1-Benzofuran-2-yl)Ethanone]: the melting point is 115 to 118 °C. Moreover, in data set [1], the IC50 was above 100 µM. This molecule also showed a half-inhibitory concentration (IC50) in data set [2] above 100 µM. The molecule further returned a half-maximal inhibitory concentration (IC50) in data set [3] of 36.3 ± 4.5 µM. Also, the concentration for half-maximal inhibition (IC50) in data set [4] is 67.3 ± 29.7 µM. In data set [5], this molecule had a half-inhibitory concentration (IC50) above 100 µM.
Regarding `CCOc1cccc2oc(C(C)=O)c(C)c12` [Compound 3, 1-(4-Ethoxy-3-Methyl-1-Benzofuran-2-yl)Ethanone], the melting point lay within 60 to 65 °C. In [1], this molecule had an IC50 of 52.3 ± 22.5 µM. Further, the half-inhibitory concentration (IC50) in [2] is above 100 µM. The same molecule showed a half-maximal inhibitory concentration (IC50) in [3] of 58 ± 21.1 µM. In data set [4], the IC50 was above 100 µM. This molecule returned an IC50 in data set [5] of 66.4 ± 28.7 µM.
Molecule `CCOc1ccc2c(C)c(C(C)=O)oc2c1` [Compound 4, 1-(6-Ethoxy-3-Methyl-1-Benzofuran-2-yl)Ethanone] displayed a melting point of 86 to 90 °C. In addition, in data set [1], the IC50 is above 100 µM. The molecule also gave a 50% inhibitory concentration (IC50) in [2] above 100 µM. The IC50 in data set [3] turned out to be 60 ± 9 µM. This molecule also came in with an IC50 in [4] of 55.3 ± 33.4 µM. Also, the IC50 in [5] is above 100 µM.
For `COc1cc2c(CBr)c(C(C)=O)oc2c(C(C)=O)c1OC` [1,1′-[3-(bromomethyl)-5,6-dimethoxy-1-benzofuran-2,7-diyl]diethanone], in the data set with HeLa cancer cells, the “Toxicity toward HeLa cancer cells” value is reported as “exhibiting toxicity toward neither HeLa cancer cells”. Moreover, the results for the IC50 in the data set on HL-60 leukemic cell line and in the data set on K562 leukemic cell line were 0.1 µM and 5 µM, respectively.
The molecule `COc1ccc2oc(C(C)=O)c(C)c2c1` [Compound 1, 1-(5-Methoxy-3-Methyl-1-Benzofuran-2-yl)Ethanone] displayed a melting point of 93 to 96 °C. The same molecule registered a concentration for half-maximal inhibition (IC50) in [1] above 100 µM. The same molecule displayed a half-maximal inhibitory concentration (IC50) in data set [2] above 100 µM. In addition, inhibition in data set [3] was half-maximal at 57 ± 3.5 µM (IC50). Besides, the IC50 in data set [4] was above 100 µM. Moreover, 80 ± 20 µM corresponded to half-maximal inhibition in data set [5] (IC50).
On to `CC(C)C[C@H](NC(=O)[C@H](Cc1ccccc1)NC(=O)c1cnccn1)B(O)O` [Bortezomib, reference compound], for which the IC50 in [3] was determined as 0.04 ± 0.01 µM.
Usually MIC stands for the lowest concentration that inhibits growth of the organism. Turning to `COc1cc2oc(C(C)=O)c(CBr)c2c(OC)c1Br` [Compound 7, 1-[5-Bromo-3-(Bromomethyl)-4,6-Dimethoxy-1-Benzofuran-2-yl]Ethanone], the melting point is 165 to 171 °C. The MIC in the data set on clinical strains is above 250 µg/mL. Further, in data set [1], half-maximal inhibition (IC50) was put at 47.1 ± 22.2 µM. The molecule further returned an IC50 in [2] above 100 µM. Besides, half-maximal inhibition in [3] (IC50) was put at 50 ± 10 µM. In the data set on E. coli ATCC 25922, the MIC is above 512 µg/mL. In the data set with S.aureus ATCC 6538, this molecule registered a minimum inhibitory concentration (MIC) of 64 µg/mL (≈ 163 µM). This molecule had an MIC against P. aeruginosa ATCC 15442 above 512 µg/mL. The MIC with S.aureus NCTC 4163 was above 512 µg/mL. Also, the MIC against S.aureus ATCC 25923 was 16 µg/mL (≈ 40.8 µM). The same molecule came in with a minimal inhibitory concentration (MIC) in data set [6] of 16 µg/mL (≈ 40.8 µM). In addition, the minimal inhibitory concentration (MIC) in data set [7] was 16 µg/mL (≈ 40.8 µM). Besides, the minimum inhibitory concentration (MIC) with S.aureus NCTC 29213 was 32 µg/mL (≈ 81.6 µM). In data set [4], the IC50 was determined as 5.69 ± 5.67 µM. The midpoint of inhibition in data set [5], the IC50, lay at 40 ± 15 µM.
In turn, `COc1cccc2c1C(=O)c1c(O)c3c(c(O)c1C2=O)C[C@@](O)(C(=O)CO)C[C@@H]3O[C@H]1C[C@H](N)[C@H](O)[C@H](C)O1` [Doxorubicin, reference compound] came in with a concentration for half-maximal inhibition (IC50) in [3] of 0.21 ± 0.1 µM.
